Measurements: patent publication US12404285B2, “KRAS G12D proteolysis targeting chimeras” (PAQ Therapeutics Inc., priority 2022, dated 2025)

Biological target: T1, KRAS (G12D)-HiBit in AsPc-1-KRAS (G12D)-HiBit-KI cell (Homo sapiens, UniProt P01116, G12D)
T1 construct: host or cells: AsPc-1-KRAS (G12D)-HiBit-KI cells (knock-in line)
Experiment: G12D HiBit assay
Type: cell-based
Conditions: 24 hours compound treatment, absolute DC50, read-out: Average PHA DC50
Description: Day 1. Prepared the culture medium for AsPc-1-KRAS (G12D)-HiBit-KI cell (Pharmaron) using RPMI 1640 medium (Gibco, 11875093) with 10% FBS (Gibco, 10099141C) and 1% Penicillin-Streptomycin Liquid (Solarbio, P1400). Cultivated cells in T-75 flasks in a cell culture incubator (Thermo, Model: 371) at 37° C., 5% CO2. Allowed cells to reach approximately 80% confluence before splitting. Rinsed cultivated cells in T-75 flasks with 5 mL PBS (Solarbio, P1020-500). Aspirated off PBS, added 1.5 mL trypsin (Invitrogen, #25300), and incubated at 37° C. for approximately 5 minutes or until the cells detached. Inactivated trypsin by adding excessive serum containing medium. Harvested the cells from flask into cell culture medium and counted the cell number. Seeded AsPc-1-KRAS (G12D)-HiBit-KI cell into 384-well plate (Corning, 3570) (cell density: 5×10^3 cells/well in 50 μL medium) in RPMI 1640 medium and incubated overnight at 37° C. and 5% CO2.
Day 2. Test compounds were dissolved at 0.3 mM in DMSO (Solarbio, D8371) as stock solution. Transferred 45 μL of stock solution to a 384-well plate (Labcyte, 001-14555). Performed 3-fold, 10-points dilution via transferring 15 μL compound into 30 μL DMSO by using TECAN liquid handler (TECAN, Freedom EVO200). The compound plates were spin at room temperature at 1,000 RPM for 1 minute (Eppendorf, 5810R). Transferred 50 nL of diluted compounds from compound source plate into the cell plate by Echo (Labcyte, 550) to achieve final concentrations of 300 nM, 100 nM, 33.3 nM, 11.1 nM, 3.7 nM, 1.23 nM, 0.41 nM, 0.14 nM, 0.046 nM and 0.015 nM, then mixed the cell plate on a plate shaker (Yoning, WZ-4) for 15 seconds at 900 rpm. After compound treatment for 24 hours, removed the plate from incubators and equilibrated at room temperature for 15 minutes. Prepared the HiBit reagent (Promega, N3040) by mixing 10 mL of Nano-Glo®-HiBiT Lytic Buffer with 200 μL of Nano-Glo®-HiBiT Lytic Substrate and 100 μL of LgBiT Protein. Added 20 μL of HiBit reagent into each well of the cell plate and spun the plates at room temperature at 1,000 RPM for 1 minute. Then shook the plates at 600 RPM at room temperature for 20 minutes using a plate shaker (Yoning, WZ-4), and read the luminescence by EnVision (PerkinElmer, 2105-0020).
The inhibition activity was calculated using the following formula: HiBit-G12D level (%)=100%×[Luminescence(Sample)/Mean of Luminescence (HC)] where HC (high control) is obtained from cells treated with 0.1% DMSO only.
Absolute DC50 was calculated by fitting the curve using GraphPad Prism v8.0.2 (analyis 263): Y=Bottom+(100−Bottom)/(1+10^(Log AbsoluteIC50−X)*HillSlope+log((100−Bottom)/(50−Bottom)−1)))
The data are reported in Table 3, wherein “+++”=DC50 less than 100 nM, “++”=DC50 greater than or equal to 100 nM and less than 300 nM; “+”=DC50 greater than or equal to 300 nM.

T1 sequence (P01116 1-188 isoform P01116-2 G12D): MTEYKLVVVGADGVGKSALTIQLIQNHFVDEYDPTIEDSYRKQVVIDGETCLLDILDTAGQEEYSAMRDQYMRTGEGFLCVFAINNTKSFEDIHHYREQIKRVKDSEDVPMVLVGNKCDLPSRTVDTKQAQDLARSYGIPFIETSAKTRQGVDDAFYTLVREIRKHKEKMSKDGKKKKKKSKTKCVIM

Row | SMILES | DC50 [µM]
1 | C#Cc1c(F)ccc2cccc(-c3ncc4c(N5CC6CCC(C5)N6)nc(OC[C@@]56CCCN5[C@H](COC(=O)NC[C@@H]5CN(CC#Cc7cccc8c7n(C)c(=O)n8C7CCC(=O)NC7=O)CCO5)CC6)nc4c3F)c12 (stereo partly drawn) [Compound 125, [(3S,8S)-8-[[4-(3,8-Diazabicyclo[3.2.1]octan-3-yl)-7-(8-ethynyl-7-fluoro-1-naphthyl)-8-fluoro-pyrido[4,3-d]pyrimidin-2-yl]oxymethyl]-1,2,3,5,6,7-hexahydropyrrolizin-3-yl]methylN-[[(2R)-4-[3-[1-(2,6-dioxo-3-piperidyl)-3-methyl-2-oxo-benzimidazol-4-yl]prop-2-ynyl]morpholin-2-yl]methyl]carbamate] | ≥ 0.3
2 | C#Cc1c(F)ccc2cccc(-c3ncc4c(N5CC6CCC(C5)N6)nc(OC[C@@]56CCCN5[C@H](COC(=O)N5CCC(CC7CCN(c8cccc9c8n(C)c(=O)n9C8CCC(=O)NC8=O)CC7)CC5)CC6)nc4c3F)c12 (some centres unmarked) [Compound 48] | ≥ 0.3
3 | C#Cc1c(F)ccc2cccc(-c3ncc4c(N5CC6CCC(C5)N6)nc(OC[C@@]56CCCN5[C@H](COC(=O)N5CCC(CN7CC(Oc8cccc9c8n(C)c(=O)n9C8CCC(=O)NC8=O)C7)CC5)CC6)nc4c3F)c12 (stereo partly drawn) [Compound 100, [(3S,8S)-8-[[4-(3,8-diazabicyclo[3.2.1]octan-3-yl)-7-(8-ethynyl-7-fluoro-1-naphthyl)-8-fluoro-pyrido[4,3-d]pyrimidin-2-yl]oxymethyl]-1,2,3,5,6,7-hexahydropyrrolizin-3-yl]methyl 4-[[3-[1-(2,6-dioxo-3-piperidyl)-3-methyl-2-oxo-benzimidazol-4-yl]oxyazetidin-1-yl]methyl]piperidine-1-carboxylate] | < 0.1
4 | C#Cc1c(F)ccc2cccc(-c3ncc4c(N5CC6CCC(C5)N6)nc(OC[C@@]56CCCN5[C@H](COC(=O)N5CCC(CCn7cc(-c8cccc9c8n(C)c(=O)n9C8CCC(=O)NC8=O)nn7)CC5)CC6)nc4c3F)c12 (stereo partly drawn) [Compound 97, [(3S,8S)-8-[[4-(3,8-Diazabicyclo[3.2.1]octan-3-yl)-7-(8-ethynyl-7-fluoro-1-naphthyl)-8-fluoro-pyrido[4,3-d]pyrimidin-2-yl]oxymethyl]-1,2,3,5,6,7-hexahydropyrrolizin-3-yl]methyl4-[2-[4-[1-(2,6-dioxo-3-piperidyl)-3-methyl-2-oxo-benzimidazol-4-yl]triazol-1-yl]ethyl]piperidine-1-carboxylate] | < 0.1
5 | C#Cc1c(F)ccc2cccc(-c3ncc4c(N5CC6CCC(C5)N6)nc(OC[C@@]56CCCN5[C@H](COC(=O)NCCCC(=O)N5CCN(c7ccc(N8CCC(=O)NC8=O)cc7)CC5)CC6)nc4c3F)c12 [Compound 146, [(3S,8S)-8-[[4-(3,8-diazabicyclo[3.2.1]octan-3-yl)-7-(8-ethynyl-7-fluoro-1-naphthyl)-8-fluoro-pyrido[4,3-d]pyrimidin-2-yl]oxymethyl]-1,2,3,5,6,7-hexahydropyrrolizin-3-yl]methylN-[4-[4-[4-(2,4-dioxohexahydropyrimidin-1-yl)phenyl]piperazin-1-yl]-4-oxo-butyl]carbamate] | ≥ 0.3
6 | C#Cc1c(F)ccc2cccc(-c3ncc4c(N5CC6CCC(C5)N6)nc(OC[C@@]56CCCN5[C@H](COC(=O)NCCCC(=O)N5CCC(c7cccc8c7n(C)c(=O)n8C7CCC(=O)NC7=O)CC5)CC6)nc4c3F)c12 (stereo partly drawn) [Compound 39, [(3S,8S)-8-[[4-(3,8-Diazabicyclo[3.2.1]octan-3-yl)-7-(8-ethynyl-7-fluoro-1-naphthyl)-8-fluoro-pyrido[4,3-d]pyrimidin-2-yl]oxymethyl]-1,2,3,5,6,7-hexahydropyrrolizin-3-yl]methyl N-[4-[4-[1-(2,6-dioxo-3-piperidyl)-3-methyl-2-oxo-benzimidazol-4-yl]-1-piperidyl]-4-oxo-butyl]carbamate] | ≥ 0.3

Results, then the compound that gave them:

Row | DC50 [µM] | SMILES
7 | < 0.1 | C#Cc1c(F)ccc2cccc(-c3ncc4c(N5CC6CCC(C5)N6)nc(OC[C@@]56CCCN5[C@H](COC(=O)N5CCC(CN(C)C7CCN(c8cccc9c8n(C)c(=O)n9C8CCC(=O)NC8=O)CC7)CC5)CC6)nc4c3F)c12 (stereo partly drawn) [Compound 108, [(3S,8S)-8-[[4-(3,8-Diazabicyclo[3.2.1]octan-3-yl)-7-(8-ethynyl-7-fluoro-1-naphthyl)-8-fluoro-pyrido[4,3-d]pyrimidin-2-yl]oxymethyl]-1,2,3,5,6,7-hexahydropyrrolizin-3-yl]methyl4-[[[1-[1-(2,6-dioxo-3-piperidyl)-3-methyl-2-oxo-benzimidazol-4-yl]-4-piperidyl]-methyl-amino]methyl]piperidine-1-carboxylate]
8 | < 0.1 | C#Cc1c(F)ccc2cccc(-c3ncc4c(N5CC6CCC(C5)N6)nc(OC[C@@]56CCCN5[C@H](COC(=O)N5CC(OCC7CCN(c8ccc9c(c8)n(C)c(=O)n9C8CCC(=O)NC8=O)CC7)C5)CC6)nc4c3F)c12 (stereo partly drawn) [Compound 101, [(3S,8S)-8-[[4-(3,8-Diazabicyclo[3.2.1]octan-3-yl)-7-(8-ethynyl-7-fluoro-1-naphthyl)-8-fluoro-pyrido[4,3-d]pyrimidin-2-yl]oxymethyl]-1,2,3,5,6,7-hexahydropyrrolizin-3-yl]methyl 3-[[1-[1-(2,6-dioxo-3-piperidyl)-3-methyl-2-oxo-benzimidazol-5-yl]-4-piperidyl]methoxy]azetidine-1-carboxylate]
9 | < 0.1 | C#Cc1c(F)ccc2cccc(-c3ncc4c(N5CC6CCC(C5)N6)nc(OC[C@@]56CCCN5[C@H](COC(=O)N5CC7CCC(C5)C7CN5CCC(c7ccc8c(c7)n(C)c(=O)n8C7CCC(=O)NC7=O)CC5)CC6)nc4c3F)c12 (stereo partly drawn) [Compound 103, [(3S,8S)-8-[[4-(3,8-Diazabicyclo[3.2.1]octan-3-yl)-7-(8-ethynyl-7-fluoro-1-naphthyl)-8-fluoro-pyrido[4,3-d]pyrimidin-2-yl]oxymethyl]-1,2,3,5,6,7-hexahydropyrrolizin-3-yl]methyl8-[[4-[1-(2,6-dioxo-3-piperidyl)-3-methyl-2-oxo-benzimidazol-5-yl]-1-piperidyl]methyl]-3-azabicyclo[3.2.1]octane-3-carboxylate]
10 | < 0.1 | C#Cc1c(F)ccc2cccc(-c3ncc4c(N5CC6CCC(C5)N6)nc(OC[C@@]56CCCN5[C@H](COC(=O)N5CCN(CCC7CCN(Cc8ccc9c(c8)n(C)c(=O)n9C8CCC(=O)NC8=O)CC7)CC5)CC6)nc4c3F)c12 (stereo partly drawn) [Compound 88, [(3S,8S)-8-[[4-(3,8-Diazabicyclo[3.2.1]octan-3-yl)-7-(8-ethynyl-7-fluoro-1-naphthyl)-8-fluoro-pyrido[4,3-d]pyrimidin-2-yl]oxymethyl]-1,2,3,5,6,7-hexahydropyrrolizin-3-yl]methyl 4-[2-[1-[[1-(2,6-dioxo-3-piperidyl)-3-methyl-2-oxo-benzimidazol-5-yl]methyl]-4-piperidyl]ethyl]piperazine-1-carboxylate]
11 | < 0.1 | C#Cc1c(F)ccc2cccc(-c3ncc4c(N5CC6CCC(C5)N6)nc(OC[C@@]56CCCN5[C@H](COC(=O)N5CCC(CN7CCC(c8cccc9c8n(C)c(=O)n9C8CCC(=O)NC8=O)CC7)CC5)CC6)nc4c3F)c12 (stereo partly drawn) [Compound 38, [(3S,8S)-8-[[4-(3,8-Diazabicyclo[3.2.1]octan-3-yl)-7-(8-ethynyl-7-fluoro-1-naphthyl)-8-fluoro-pyrido[4,3-d]pyrimidin-2-yl]oxymethyl]-1,2,3,5,6,7-hexahydropyrrolizin-3-yl]methyl4-[[4-[1-(2,6-dioxo-3-piperidyl)-3-methyl-2-oxo-benzimidazol-4-yl]-1-piperidyl]methyl]piperidine-1-carboxylate]
